From patent US6818226B2, “Dermal penetration enhancers and drug delivery systems involving same” (ACRUX DDS Pty. Ltd., priority 1996, dated 2004)

Columns and labels:
[1] = in vivo, Bartek et al. 1972; cited from earlier work
[2] = Testosterone clearance after intravenous bolus in pigs (Example 13); assay type: in vivo, domestic weanling pig; details: pig, plasma, bolus dose of intravenous testosterone
[3] = Testosterone flux across shed snake skin, finite dose 5 microL/cm^2 (Example 10); details: control, no enhancer, 12% w/v testosterone in absolute ethanol
Protocol: Dermatol., 94; 235-240, 1990.
(§1) Degassing was repeated three times.
The volume of each formulation applied to the skin was 5 microL/cm^2. Each formulation contained 12% w/v testosterone in absolute ethanol. The dose was applied with a GC syringe.
Samples were assayed for testosterone by HPLC as shown before in Example 6.

[4] = Testosterone penetration across dermatomed neonate porcine skin in vitro (Example 6); assay type: in vitro ADME; details: control, no enhancer; 12% w/v testosterone in absolute ethanol
Excerpt: as §1

C[C@]12CC[C@H]3[C@@H](CCC4=CC(=O)CC[C@@]43C)[C@@H]1CC[C@@H]2O [testosterone]
permeability in human skin compared with pig skin, fold lower [1]: 2.2 fold
clearance [2]: 11.1 mL/min/kg
Mean flux +/− std error of testosterone [3]: 0.70 +/− 0.03 microg/cm^2.h
mean amount of testosterone penetrated after 4 hours [4]: 4 ± 1 μg/cm^2
mean amount of testosterone penetrated after 24 hours [4]: 13 ± 2 μg/cm^2
